Data taken from ChEMBL document CHEMBL4304811, “Development of a Water-Soluble Indolylmaleimide Derivative IM-93 Showing Dual Inhibition of Ferroptosis and NETosis” (ACS Med Chem Lett, 2019).
Activity calls are given as the source filed them. No cut-off for these calls is given here.

Legend:
[1] = target: Serine/threonine-protein kinase pim-3 (Homo sapiens) (UniProt Q86V86); experiment: Binding affinity to wild-type human partial length PIM3 (G16 to A317 residues) expressed in bacterial expression system assessed as residual binding level at 10 uM by Kinomescan method relative to control
[2] = test system: Mast/stem cell growth factor receptor Kit (Homo sapiens), P10721 [V559D]; experiment: Binding affinity to human partial length KIT V559D mutant (Y545 to D952 residues) expressed in bacterial expression system assessed as residual binding level at 10 uM by Kinomescan method relative to control
[3] = target: Protein-tyrosine kinase 2-beta (Homo sapiens) (UniProt Q14289); experiment: Binding affinity to wild-type human full length PYK2 (M1 to E967 residues) expressed in bacterial expression system assessed as residual binding level at 10 uM by Kinomescan method relative to control
[4] = test system: Receptor-type tyrosine-protein kinase FLT3 (Homo sapiens), P36888 [D835Y]; experiment: Binding affinity to human partial length FLT3 D835Y mutant (Q580 to Y969 residues) expressed in bacterial expression system assessed as residual binding level at 10 uM by Kinomescan method relative to control
[5] = target: Serine/threonine-protein kinase pim-1 (Homo sapiens) (UniProt P11309); experiment: Binding affinity to wild-type human partial length PIM1 (A15 to K313 residues) expressed in bacterial expression system assessed as residual binding level at 10 uM by Kinomescan method relative to control
[6] = target: Calcium/calmodulin-dependent protein kinase type II subunit gamma (Homo sapiens) (UniProt Q13555); experiment: Binding affinity to wild-type human partial length CAMK2G (R9 to A303 residues) expressed in bacterial expression system assessed as residual binding level at 10 uM by Kinomescan method relative to control
[7] = target: TGF-beta receptor type-2 (Homo sapiens) (UniProt P37173); experiment: Binding affinity to wild-type human partial length TGFBR2 (I218 to K567 residues) expressed in bacterial expression system assessed as residual binding level at 10 uM by Kinomescan method relative to control
[8] = target: Mitogen-activated protein kinase kinase kinase 10 (Homo sapiens) (UniProt Q02779); experiment: Binding affinity to wild-type human partial length MLK2 (V52 to W380 residues) expressed in bacterial expression system assessed as residual binding level at 10 uM by Kinomescan method relative to control
[9] = target: Ribosomal protein S6 kinase alpha-2 (Homo sapiens) (UniProt Q15349); experiment: Binding affinity to wild-type human partial length C-terminal RSK3 kinase domain 2 (V403 to K700 residues) expressed in bacterial expression system assessed as residual binding level at 10 uM by Kinomescan method relative to control
[10] = target: Wee1-like protein kinase (Homo sapiens) (UniProt P30291); experiment: Binding affinity to wild-type human partial length WEE1 (M291 to K575 residues) expressed in bacterial expression system assessed as residual binding level at 10 uM by Kinomescan method relative to control
[11] = target: Tyrosine-protein kinase SYK (Homo sapiens) (UniProt P43405); experiment: Binding affinity to wild-type human partial length SYK (D354 to N635 residues) expressed in bacterial expression system assessed as residual binding level at 10 uM by Kinomescan method relative to control
[12] = target: Glycogen synthase kinase-3 beta (Homo sapiens) (UniProt P49841); experiment: Binding affinity to wild-type human full length GSK3B (M1 to T433 residues) expressed in mammalian expression system assessed as residual binding level at 10 uM by Kinomescan method relative to control
[13] = test system: NIH3T3; experiment: Inhibition of TBHP-induced ferroptosis in mouse NIH/3T3 cells after 12 hrs by WST-8 assay; type: functional, cell-based; settings: NIH3T3, 12 h
[14] = test system: Neutrophil; experiment: Inhibition of PMA-induced NETosis in human neutrophils at 25 uM preincubated for 30 mins followed by PMA stimulation and measured after 3 hrs by Hoechst […] staining based fluorescence microscopic analysis; type: functional, cell-based
[15] = target: Serine/threonine-protein kinase Nek6 (Homo sapiens) (UniProt Q9HC98); experiment: Binding affinity to wild-type human full length NEK6 (M8 to T313 residues) expressed in bacterial expression system assessed as residual binding level at 10 uM by Kinomescan method relative to control
[16] = target: Serine/threonine-protein kinase tousled-like 2 (Homo sapiens) (UniProt Q86UE8); experiment: Binding affinity to wild-type human partial length TLK2 (E424 to N749 residues) expressed in bacterial expression system assessed as residual binding level at 10 uM by Kinomescan method relative to control
[17] = target: Serine/threonine-protein kinase SIK2 (Homo sapiens) (UniProt Q9H0K1); experiment: Binding affinity to wild-type human full length SIK2 (M1 to N926 residues) expressed in bacterial expression system assessed as residual binding level at 10 uM by Kinomescan method relative to control
[18] = target: Ephrin type-A receptor 1 (Homo sapiens) (UniProt P21709); experiment: Binding affinity to wild-type human partial length EPHA1 (V588 to I913 residues) expressed in bacterial expression system assessed as residual binding level at 10 uM by Kinomescan method relative to control
[19] = target: Serine/threonine-protein kinase 4 (Homo sapiens) (UniProt Q13043); experiment: Binding affinity to wild-type human full length MST1 (M1 to F487 residues) expressed in bacterial expression system assessed as residual binding level at 10 uM by Kinomescan method relative to control
[20] = test system: Mast/stem cell growth factor receptor Kit (Homo sapiens), P10721 [L576P]; experiment: Binding affinity to human partial length KIT L576P mutant (Y545 to D952 residues) expressed in bacterial expression system assessed as residual binding level at 10 uM by Kinomescan method relative to control
[21] = target: Activin receptor type-1B (Homo sapiens) (UniProt P36896); experiment: Binding affinity to wild-type human ACVR1B (S187 to I505 residues) expressed in bacterial expression system assessed as residual binding level at 10 uM by Kinomescan method relative to control
[22] = target: Dual specificity mitogen-activated protein kinase kinase 3 (Homo sapiens) (UniProt P46734); experiment: Binding affinity to wild-type human full length MEK3 (M1 to S318 residues) expressed in mammalian expression system assessed as residual binding level at 10 uM by Kinomescan method relative to control
[23] = target: Tyrosine-protein kinase receptor Tie-1 (Homo sapiens) (UniProt P35590); experiment: Binding affinity to wild-type human partial length TIE1 (T819 to A1138 residues) expressed in bacterial expression system assessed as residual binding level at 10 uM by Kinomescan method relative to control
[24] = target: Protein kinase C eta type (Homo sapiens) (UniProt P24723); experiment: Binding affinity to wild-type human partial length PRKCH (S324 to P683 residues) expressed in bacterial expression system assessed as residual binding level at 10 uM by Kinomescan method relative to control
[25] = target: Phosphatidylinositol 4,5-bisphosphate 3-kinase catalytic subunit alpha isoform (Homo sapiens) (UniProt P42336); experiment: Binding affinity to wild-type human partial length PIK3CA (R108 to N1068 residues) expressed in mammalian expression system assessed as residual binding level at 10 uM by Kinomescan method relative to control

Q: Which results are given for `CC(C)N1C(=O)C(NCCCN(C)C)=C(c2cn(C)c3ccccc23)C1=O.Cl`?
A: Activity [1]: 98%; Activity [2]: 96%; Activity [3]: 100%; Activity [4]: 94%; Activity [5]: 100%; Activity [6]: 83%; Activity [7]: 92%; Activity [8]: 83%; Activity [9]: 100%; Activity [10]: 100%; Activity [11]: 82%; Activity [12]: 84%; IC50 [13]: 1800 nM; inhibition [14]: Active; Activity [15]: 100%; Activity [16]: 84%; Activity [17]: 100%; Activity [18]: 85%; Activity [19]: 93%; Activity [20]: 87%; Activity [21]: 88%; Activity [22]: 97%; Activity [23]: 92%; Activity [24]: 99%; Activity [25]: 76%
